Data taken from PubChem BioAssay AID2305 (GlaxoSmithKline (GSK), 2010).

system: P. falciparum 3D7 growth, pLDH absorbance; assay: blood-stage malaria parasite growth potency – strain 3D7, dose response (AID 2305)

Row | SMILES | IC50 [nM]
1 | CNC(=O)c1ccccc1Nc1nc(Nc2ccc(N3CCOCC3)cc2)ncc1Cl | 730
2 | COc1ccc(Nc2nc(C)cc(NCc3ccc(-c4c(C)noc4C)cc3)n2)cc1 | 840
3 | C=Cc1cc(NC(=O)N2CCc3cc(OC)c(C(F)(F)F)cc32)cc(-c2cccnc2)c1 | 700
4 | COc1cc(-c2nc(-c3ccc4c(c3)CCC4=NO)c(-c3ccncc3)[nH]2)ccc1OCCN1CCCCC1 | 790
5 | Cc1ccc2nc(C)cc(NN=Cc3ccc(Cl)cc3)c2c1 | 990
6 | CC(C)CNCc1cccc(-c2ccccc2CNC2CCN(Cc3ccccc3)CC2)c1 | 580
7 | C(=N\Nc1nccc2sc(-c3cccnc3)cc12)/c1ccncc1 | 210
8 | CSc1ccc(C[C@@H](C)NC[C@H](O)c2cccc(Cl)c2)cc1 | 940
9 | Clc1ccc(OCc2ccccc2)c(-c2nc(-c3nc4ncc(Br)cc4[nH]3)cs2)c1 | 210
10 | COC(=O)c1ccc(-c2ccc(C(=O)NCC3CCN(c4nc(N)c5cc(OC)c(OC)cc5n4)CC3)cc2)cc1 | 180
11 | CC[C@H]1CN2CC[C@H]1C[C@H]2[C@H](O)c1ccnc2ccc(O)cc12 | 640
12 | COc1ccc2nccc(N3CCN(CCNCc4ccc5c(n4)NC(=O)CO5)CC3)c2c1 | 1160
13 | COc1ccc(Br)cc1/C=C/C(=O)Nc1ccc(C2CCN(C)CC2)cc1 | 500
14 | O=C1CCCN1CCCNCc1ccc(-c2cccc(-c3nc4ccc(C(F)(F)F)cc4[nH]3)c2)cc1 | 190
15 | CCOC(=O)c1ccc(NC(=O)Nc2ccc(-c3ccc(-c4nc5ccc(C(F)(F)F)cc5[nH]4)cc3)cc2)cc1 | 270
16 | CC(CCCCOCCc1ccccc1)NCC(O)c1cc(Cl)c(N)c(Cl)c1 (configuration not stated) | 790
17 | O=C(Nc1ccc(Oc2ccccc2)cc1)N(Cc1ccc(-c2ccc(CN3CCNCC3)cc2)cc1)C1CCN(Cc2ccccc2)CC1 | 890
18 | CCCCn1c(-c2ccco2)nc2c(c(=O)c3ccccc3n2C)c1=O | 1240
19 | COCCCNc1sc(S(=O)(=O)c2ccccc2)nc1S(=O)(=O)c1ccc(C)cc1 | 800
20 | Nc1nc(N)c2cc(S(=O)(=O)c3ccc4ccccc4c3)ccc2n1 | 40
21 | O=C(NC1CCN(Cc2cccc(C(F)(F)F)c2)CC1)c1ccc(-c2cccc(C(F)(F)F)c2)s1 | 1010
22 | CCC(CC)(Cc1ccccc1)NC(=O)[C@H](CC(C)C)Nc1ccc(C#N)c2ccccc12 | 910
23 | Fc1cccc(COc2ccc(Nc3ncnc4sc(C#C[C@H]5CC[C@H](CNCC(F)(F)F)N5)cc34)cc2Cl)c1 | 1420
24 | N#Cc1cncc(-c2nc3c(N4CCCC(N)C4)cccc3n2CCNCc2ccccc2)c1 (configuration not stated) | 770
25 | COc1cc(Nc2ccnc3ccc(C(C)(C)C)cc23)cc(OC)c1OC | 610

Row | SMILES | IC50 [nM]
26 | Cc1cccc(C(=O)NC(NC(=S)Nc2cc(Cl)ccc2Cl)C(Cl)(Cl)Cl)c1 (configuration not stated) | 1270
27 | Cc1ccc(S(=O)(=O)n2nccc2-c2c(-c3ccc(Cl)cc3)noc2C)cc1 | 810
28 | CN(C)CCNC(=O)c1ccc2c(c1)n(C1CCN(S(=O)(=O)c3ccc(-c4ccccc4)cc3)CC1)c(=O)n2CC1CCCCC1 | 620
29 | Cc1nc(-c2cccc(C(F)(F)F)c2)n2nc(Nc3ccc(OCCN4CCCC4)cc3)ncc12 | 750
30 | COc1ccc2c(NN=Cc3ccccc3Cl)ccnc2c1 | 620
31 | CCC(C)c1ccc(Nc2nc(C)cc(N(CC)CCCN3CCCCC3)n2)cc1 (configuration not stated) | 330
32 | CCc1sc(N2CCC(C)CC2)nc1C(=O)Nc1ccc(F)cc1C(F)(F)F | 1090
33 | CCCC(C)NC[C@@H](O)[C@H](Cc1ccccc1)NC(=O)c1cc(NCC)cc(N2CCCCS2(=O)=O)c1 (some centres not stated) | 160
34 | Cc1nc(N)nc(N)c1OCc1cccc2c1ccc1ccccc12 | 100
35 | CC(C)C[C@H](NC(=O)OC(C)(C)C)C(=O)Nc1ccc(Cc2ccc(NC(=O)[C@H](CC(C)C)NC(=O)OC(C)(C)C)cc2)cc1 | 760
36 | c1ccc2c(NCCCCCCNc3c4ccccc4nc4ccccc34)c3ccccc3nc2c1 | 750
37 | COc1ccc2ncc(F)c(CCN3C[C@H](CNCc4ccc5c(c4)OCCO5)[C@H](O)C3)c2n1 | 930
38 | CC(O)C1CCCCN1C(=O)c1cccc(-c2ccc(-c3nc4ccccc4[nH]3)s2)c1 (configuration not stated) | 800
39 | Cc1[nH]c2ccccc2c1C(=O)C(C)Sc1n[nH]c(-c2ccccc2Br)n1 (configuration not stated) | 30
40 | CS(=O)(=O)Nc1cccc(-c2cnc3[nH]cc(-c4ccc(C(=O)O)c(F)c4)c3c2)c1 | 830
41 | O=C(c1cccs1)N(Cc1cccc(-c2ccc(CNCCc3ccccc3)cc2)c1)C1CCN(Cc2ccccc2)CC1 | 860
42 | CN(C)c1ccnc2ccc(NC(=O)Nc3ccnc4ccccc34)cc12 | 130
43 | O=C(/C=C/c1ccc(Cl)c(Cl)c1)NCCCCCN1CCC(NC(=O)c2ccc3ccccc3c2)CC1 | 1020
44 | COc1cc(SC)ccc1C(=O)N1CC(C)CC(C)C1 (configuration not stated) | 350
45 | Cc1ccc(NC(=O)Cc2noc(CC3CCCN3C(=O)N[C@@H](C)c3ccccc3)n2)cc1 (some centres not stated) | 370
46 | CC(C)CCN1CCCN(Cc2ccc(C(=O)Nc3ccc(C(C)(C)C)cc3)cc2)CC1 | 870
47 | O=C(C1CCN(C(c2ccccc2)c2ccc(Cl)c(Cl)c2)CC1)N1CC=CC1 (configuration not stated) | 720
48 | O=C(c1ccc([N+](=O)[O-])o1)N1CCC(c2cn(Cc3cccc(F)c3)c3ccccc23)CC1 | 640
49 | CCN(CC)CCNC(=O)/C(=C/C=C/c1cc2cc(Cl)c(Cl)cc2[nH]1)OC | 930
50 | Cc1n[nH]c(C)c1C1CCN(CC2CCC(NC(=O)/C=C/c3ccc(Cl)c(Cl)c3)CC2)CC1 (configuration not stated) | 730

Row | SMILES | IC50 [nM]
51 | CCCCCC(C)N=C(Nc1ccc([N+](=O)[O-])cc1O)Nc1ccccc1Br (configuration not stated) | 620
52 | CC(C)(C)C(C)(C)Cc1ccc(O)c(CN2CCN(c3ccccc3)CC2)c1 | 600
53 | COc1cccc2c(NN=Cc3ccccc3F)ccnc12 | 940
54 | Cc1csc(-c2ccc3[nH]cc(C4=CCN(C)CC4)c3c2)n1 | 750
55 | Cc1ccc2cc(C3NC(=O)c4ccccc4N3)c(Cl)nc2c1 (configuration not stated) | 940
56 | NC1=NC(Cc2ccccc2)(c2ccncc2)C(=O)N1CCCc1ccccc1 (configuration not stated) | 940
57 | O=C(Nc1ccc(-c2ccc(-c3nc4ccccc4[nH]3)s2)cc1)Nc1ccsc1 | 280
58 | O=C(Nc1ccc(-c2cccc(-c3nc4ccc(C(F)(F)F)cc4[nH]3)c2)cc1)Nc1ccc(Cl)c(Cl)c1 | 750
59 | O=C(Nc1ccccc1)OCCOc1ccc(CC2SC(=O)NC2=O)cc1 (configuration not stated) | 370
60 | CCN(CCCN1CCCCC1)c1nc(C)cc(Nc2ccc(Cl)cc2)n1 | 840
61 | COc1ccc2c(NN=Cc3cccc([N+](=O)[O-])c3)cc(C)nc2c1 | 560
62 | CN1CCCN(Cc2cccc(-c3ccc(NS(=O)(=O)c4cccc5cccnc45)cc3)c2)CC1 | 960
63 | Clc1ccccc1OCc1ccccn1 | 990
64 | COc1ccc(Nc2nccc(N3CCC(NC(=O)Nc4ccc5c(c4)OCO5)C3)n2)cc1 (configuration not stated) | 600
65 | CCCCCCP(=O)(COc1ccc(CCN(CC(O)COc2cccc3[nH]c(C(N)=O)cc23)CC(O)COc2cccc3[nH]c(C(N)=O)cc23)cc1)OCCCC (configuration not stated) | 720
66 | CS(=O)(=O)NCCCNCc1ccc(-c2ccc(-c3nc4ccc(F)cc4[nH]3)s2)cc1 | 810
67 | CC(C)NCc1cccc(-c2ccc(NC(=O)c3ccc(C#N)cc3)cc2)c1 | 830
68 | Oc1ccccc1CNCC12CC3CC(CC(C3)C1)C2 | 280
69 | O=C(Nc1ccc(-c2cncc(NCCCN3CCCC3)c2)cc1)c1ccccc1 | 940
70 | CC1(C)[C@H]2CC[C@@H](CNc3nc(NCCc4cnc[nH]4)nc(Nc4ccc(Oc5ccccc5)cc4)n3)[C@@H]1C2 | 670
71 | Cc1ccccc1N1CCN(c2ncc(C(=O)NC3CC3)cc2Cl)CC1 | 630
72 | COc1ccccc1C1CCN(C2CCC(NC(=O)/C=C/c3ccc(F)c(F)c3)CC2)CC1 (configuration not stated) | 1320
73 | CC(=O)NC1=NC(C)(C)N(OCCCOc2ccc(Cl)c(Cl)c2)C(NC(C)=O)=N1 | 10
74 | CN1CCC(OC(=O)c2cc3cc(-c4ccccc4)ccc3n2S(=O)(=O)c2ccccc2)CC1 | 1090
75 | CCCNC(=O)C1CCN(C(c2ccc(Cl)cc2)c2ccc(Cl)cc2)CC1 | 480

Row | SMILES | IC50 [nM]
76 | Cc1cc(OCCCN2CCC(NS(=O)(=O)c3ccc(Cl)c(Cl)c3)CC2)c2ccccc2n1 | 900
77 | COc1cccc2cc(C(=O)N[C@@H](CC(C)C)C(=O)NC3CC[C@@H](C)N(C(=O)Nc4ccncc4)CC3=O)oc12 (some centres not stated) | 290
78 | CC(=O)Nc1ccc2[nH]cc(C3CCN(CC4CCN(C(=O)/C=C/c5ccc(Cl)c(Cl)c5)CC4)CC3)c2n1 | 160
79 | Cc1cc(NN=Cc2cccc(F)c2)c2cc(F)ccc2n1 | 480
80 | CC(=O)Nc1ccc(CN2CCC(NC(=O)c3ccc(-c4cccc(Cl)c4)s3)CC2)cc1 | 790
81 | CCc1cccc(C)c1-n1nc(-c2cc(C(C)(C)C)oc2C)cc1N | 660
82 | CC(C)Sc1nncc(-c2cnnc(SC(C)C)n2)n1 | 140
83 | Cc1cc(C2CCN(CCCCNC(=O)c3ccc(NC(=O)c4ccc(Cl)cc4)cc3)CC2)c(C)cc1OCc1cccnc1 | 600
84 | Cc1cccc2[nH]c(-c3ccc(-c4ccc(C(=O)NCCN5CCCC5)cc4)cc3)nc12 | 520
85 | CC(C)N1CCN(C(CN2CCN(CCCOc3cccc(F)c3)CC2)c2ccc(F)cc2)CC1 (configuration not stated) | 910
86 | O=C(/C=C/c1ccc(Cl)c(Cl)c1)N1CCC(CN2CCC(Cc3cc4ccccc4[nH]3)CC2)CC1 | 630
87 | CC(=NNC(=S)NCc1ccco1)c1ccccn1 | 250
88 | CC[C@H]1CN2CC[C@@H]1C[C@H]2[C@H](O)c1cc(N2CCC(c3ccccc3)CC2)nc2ccc(OC)cc12 | 350
89 | Nc1nc(N)c2c(Oc3cccc(Cl)c3)cccc2n1 | 470
90 | Cc1cc(C(=O)N(Cc2ccc(-c3ccc(CNCCc4ccc(S(C)(=O)=O)cc4)cn3)cc2)C(C)CN(C)C)ccc1[N+](=O)[O-] (configuration not stated) | 790
91 | CC(=O)c1ccccc1C(=O)N1CCOc2ccc(C(O)C(c3ccccc3)c3ccccc3)cc2C1 (configuration not stated) | 900
92 | COc1cc(CNCCCNc2nc3ncccc3[nH]2)c2[nH]cc(Br)c2c1 | 1160
93 | O=C(Nc1ccc(CCN2CCC(c3nc(COCC(F)(F)F)c(-c4ccccc4)o3)CC2)cc1)c1ccc(F)cc1 | 1970
94 | CCCCNC(c1ccc(Cl)cc1)C(O)c1ccc(Cl)cc1 (configuration not stated) | 620
95 | CC(=O)Nc1ncc(C(=O)Nc2cccc(-c3ccc(-c4nc5ccc(C(F)(F)F)cc5[nH]4)s3)c2)s1 | 400
96 | Cc1noc(-c2ccc(NC[C@@H](C)NC[C@H](O)c3cccc(Cl)c3)cc2)n1 | 760
97 | Cc1cccc2[nH]c(-c3cccc(-c4ccc(NC(=O)C5CC(=O)Nc6ccccc65)cc4)c3)nc12 (configuration not stated) | 690
